Reference: patent US20150209327A1, “METHODS FOR THE TREATMENT OF OBESITY USING APREMILAST” (Celgene Corporation, priority 2014, published 2015)
“And” between values parts separate entries of the source, which are not always exact repeats. Equal entries are not always repeated.

Columns and labels:
[1] = tested on: TNF-α production in PBMCs; assay: Inhibition of TNF-α production in PBMCs; format: cell-based; settings: PBMC
Text: The test methods were as described in WO 03/080049; Muller et al., J. Med. Chem., 1996, 39:3238; and Muller et al., Bioorg. Med. Chem. Lett., 1999, 9:1625-30.

[2] = Psoriasis (PSOR) Phase 3 Data Pool: weight change; format: in vivo, human; settings: 30 mg BID; for Weight % Change Category 0%, n (%) / Weight % Change Category <−20%, n (%) / Weight % Change Category >0% to ≦5%, n (%) / Weight % Change Category >5% to ≦10%, n (%) / Weight % Change Category >10% to ≦20%, n (%) / Weight % Change Category >20%, n (%) / Weight % Change Category ≧−5% to <0%, n (%) / Weight % Change Category ≧−10% to <−5%, n (%) / Weight % Change Category ≧−20% to <−10%, n (%): Subjects as Treated; for observed weight loss of greater than 10%, subjects n (%): subjects as treated
Text: (§1) Apremilast has shown benefit of weight loss in both Phase 2 and Phase 3 Psoriatic Arthritis (PSA) and Psoriasis (PSOR) trials.

[3] = Psoriatic Arthritis (PsA) Phase 3 Data Pool: weight change; format: in vivo, human; settings: 20 mg BID
Text: as §1

[4] = Apremilast-exposure Period, m = 1133
[5] = End of Period (APR, apremilast exposure), Subjects as Initially Treated at Week 0
[6] = End of Period (APR, apremilast exposure), Subjects as Initially Treated at Week 0, listed as APR
[7] = End of Period (PBC), Subjects as Initially Treated at Week 0
[8] = End of Period (apremilast exposure), Apremilast Subjects as Treated
[9] = Week 52, Apremilast Subjects as Treated
[10] = Week 78, Apremilast Subjects as Treated
[11] = Apremilast-exposure Period, Subjects as Treated, m = 943
[12] = End of Period (PBC, Week 24), Subjects as Initially Treated at Week 0

Structure (SMILES): CCOc1cc([C@@H](CS(C)(=O)=O)N2C(=O)c3cccc(NC(C)=O)c3C2=O)ccc1OC [Apremilast, (+)-2-[1-(3-ethoxy-4-methoxyphenyl)-2-methylsulfonylethyl]-4-acetylaminoisoindoline-1,3-dione]
- IC50 [1]: 77 nM
- weight decrease reported, subjects n (%) [2]: 18 (1.5%) n (%)
- Weight % Change Category 0%, n (%) [2, 4]: 72 (6.4) n (%)
- Weight % Change Category <−20%, n (%) [2, 4]: 9 (0.8) n (%)
- Weight % Change Category >0% to ≦5%, n (%) [2, 4]: 283 (25.0) n (%)
- Weight % Change Category >5% to ≦10%, n (%) [2, 4]: 61 (5.4) n (%)
- Weight % Change Category >10% to ≦20%, n (%) [2, 4]: 19 (1.7) n (%)
- Weight % Change Category >20%, n (%) [2, 4]: 1 (0.1) n (%)
- Weight % Change Category ≧−5% to <0%, n (%) [2, 4]: 470 (41.5) n (%)
- Weight % Change Category ≧−10% to <−5%, n (%) [2, 4]: 162 (14.3) n (%)
- Weight % Change Category ≧−20% to <−10%, n (%) [2, 4]: 56 (4.9) n (%)
- observed weight loss of greater than 10%, subjects n (%) ([2]; Apremilast-exposure Period): 65(5.7%) n (%)
- Change From Baseline (kg) Median (Min, Max) [2, 5]: −1.00 (−39.4, 22.3) kg
- Weight, kg End of Period Mean ± SD [2, 5]: 91.05 ± 21.694 kg
- Change From Baseline (kg) Mean ± SD [2, 6]: -1.67 kg and -1.67 ± 5.437 kg
- Change From Baseline (kg) Median (Min, Max) [2, 7]: −1.00 (−34.9, 28.0) kg
- Weight, kg End of Period Mean ± SD [2, 7]: 91.35 ± 21.673 kg
- Change From Baseline (kg) Mean ± SD ([2]; End of Period (PBC), Subjects as Initially Treated at Week 0, listed as APR): -1.45 kg and -1.45 ± 3.891 kg
- Change From Baseline (kg) Mean ± SD [2, 8]: -1.76 ± 5.344 kg
- Change From Baseline (kg) Median (Min, Max) [2, 8]: −1.10 (−39.4, 22.3) kg
- Weight, kg Time Point Mean ± SD [2, 8]: 90.72 ± 21.669 kg
- Change From Baseline (kg) Median (Min, Max) [2, 9]: −1.40 (−39.0, 15.6) kg
- Weight, kg Time Point Mean ± SD [2, 9]: 90.98 ± 22.291 kg
- Change From Baseline (kg) Mean ± SD ([2]; Week 52, Apremilast Subjects as Treated, listed as APR): -1.99 kg and -1.99 ± 5.640 kg
- Change From Baseline (kg) Median (Min, Max) [2, 10]: −2.30 (−28.0, 14.9) kg
- Weight, kg Time Point Mean ± SD [2, 10]: 89.72 ± 22.231 kg
- Change From Baseline (kg) Mean ± SD ([2]; Week 78, Apremilast Subjects as Treated, listed as APR): -2.72 kg and -2.72 ± 5.792 kg
- percentage of subjects with weight change of >−10% to <−5% ([2]; Weeks 0-16): 11.7%
- Weight % Change Category 0%, n (%) ([2]; Weeks 0-16, m = 1127): 108 (9.6) n (%)
- Weight % Change Category <−20%, n (%) ([2]; Weeks 0-16, m = 1127): 2 (0.2) n (%)
- Weight % Change Category >0% to ≦5%, n (%) ([2]; Weeks 0-16, m = 1127): 277 (24.6) n (%)
- Weight % Change Category >5% to ≦10%, n (%) ([2]; Weeks 0-16, m = 1127): 24 (2.1) n (%)
- Weight % Change Category >10% to ≦20%, n (%) ([2]; Weeks 0-16, m = 1127): 6 (0.5) n (%)
- Weight % Change Category >20%, n (%) ([2]; Weeks 0-16, m = 1127): 1 (0.1) n (%)
- Weight % Change Category ≧−5% to <0%, n (%) ([2]; Weeks 0-16, m = 1127): 557 (49.4) n (%)
- Weight % Change Category ≧−10% to <−5%, n (%) ([2]; Weeks 0-16, m = 1127): 132 (11.7) n (%)
- Weight % Change Category ≧−20% to <−10%, n (%) ([2]; Weeks 0-16, m = 1127): 20 (1.8) n (%)
- observed weight loss of greater than 10%, subjects n (%) ([2]; Weeks 0 to 16): 22 (2.0%) n (%)
- body weight of the majority of subjects ([2]; regardless of duration of exposure): maintained their body weight within 0% and 5% of baseline
- weight decrease reported, subjects n (%) [3]: 10 (1.0%) n (%)
- weight loss of greater than 10%, subjects n (%) ([3]; Apremilast-exposure Period): 42 (4.5%) n (%)
- Weight % Change Category 0%, n (%) [3, 11]: 74 (7.8) n (%)
- Weight % Change Category <−20%, n (%) [3, 11]: 1 (0.1) n (%)
- Weight % Change Category >0% to ≦5%, n (%) [3, 11]: 280 (29.7) n (%)
- Weight % Change Category >5% to ≦10%, n (%) [3, 11]: 42 (4.5) n (%)
- Weight % Change Category >10% to ≦20%, n (%) [3, 11]: 14 (1.5) n (%)
- Weight % Change Category >20%, n (%) [3, 11]: 0 n (%)
- Weight % Change Category ≧−5% to <0%, n (%) [3, 11]: 393 (41.7) n (%)
- Weight % Change Category ≧−10% to <−5%, n (%) [3, 11]: 98 (10.4) n (%)
- Weight % Change Category ≧−20% to <−10%, n (%) [3, 11]: 41 (4.3) n (%)
- Change From Baseline (kg) Median (Min, Max) [3, 5]: −0.60 (−44.3, 14.0) kg
- Weight, kg End of Period Mean ± SD [3, 5]: 84.38 ± 20.636 kg
- Change From Baseline (kg) Mean ± SD [3, 6]: -1.13 kg and -1.13 ± 4.491 kg
- Change From Baseline (kg) Median (Min, Max) [3, 12]: −0.50 (−17.2, 11.5) kg
- Weight, kg End of Period Mean ± SD [3, 12]: 84.47 ± 20.734 kg
- Change From Baseline (kg) Mean ± SD ([3]; End of Period (PBC, Week 24), Subjects as Initially Treated at Week 0, listed as APR): -1.05 kg and -1.05 ± 3.366 kg
- Change From Baseline (kg) Mean ± SD [3, 8]: -1.16 ± 4.255 kg
- Change From Baseline (kg) Median (Min, Max) [3, 8]: −0.50 (−44.3, 14.0) kg
